According to ChEMBL document CHEMBL1132641, “Structure-activity relationships for a class of inhibitors of purine nucleoside phosphorylase” (J Med Chem, 1999):
pIC50, pKi: −log10 of the molar value.

What was measured:
Experiment in all cases: biochemical
[1] = target: T1, Purine nucleoside phosphorylase (Bos taurus, UniProt P55859)
T1 sequence (P55859 whole entry): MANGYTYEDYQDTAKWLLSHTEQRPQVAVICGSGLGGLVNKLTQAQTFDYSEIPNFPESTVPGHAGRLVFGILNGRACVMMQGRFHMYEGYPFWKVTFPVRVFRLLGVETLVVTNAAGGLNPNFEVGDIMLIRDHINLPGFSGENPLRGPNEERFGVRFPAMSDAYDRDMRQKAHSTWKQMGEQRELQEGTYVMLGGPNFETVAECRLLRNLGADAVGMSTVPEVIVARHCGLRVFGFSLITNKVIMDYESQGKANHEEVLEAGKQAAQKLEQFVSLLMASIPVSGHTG
Description: (§1) Inhibitory activity against calf spleen purine nucleoside phosphorylase (PNP) using inosine as substrate at a concentration of 10 uM.

[2] = target: T1, Purine nucleoside phosphorylase; remark: listed apart in the source
Description: as §1

[3] = target: T1, Purine nucleoside phosphorylase; remark: listed apart in the source
Description: Inhibitory activity against calf spleen purine nucleoside phosphorylase (PNP) using 2-amino-6-mercapto-7-methyl purine ribonucleoside (MESG) as substrate.

Row | pIC50 [1] | pKi [2] | pKi [3] | Compound
1 | 7.33 | 8.05 | 7.21 | Nc1nc(O)c2[nH]cc(C(CC(=O)O)c3ccccc3)c2n1 (centres undefined)
2 | 6.99 | 7.19 | 7.84 | Nc1nc(O)c2[nH]cc(Cc3ccccc3Cl)c2n1
3 | 6.74 | 7.08 | 7.50 | Nc1nc2c(Cc3ccccc3O)c[nH]c2c(=O)[nH]1
4 | 4.69 | 4.99 | 4.17 | Cc1nc2c(O)[nH]c(N)nc-2c1Cc1ccccc1
5 | 5.83 | 6.05 | 6.12 | Nc1nc(O)c2[nH]c(N)c(CC3CCCCC3)c2n1
6 | 7.79 |  | 8.34 | N#CCC(c1cccc(Cl)c1)c1c[nH]c2c(=O)[nH]c(N)nc12 (centres undefined)
7 | 7.72 | 7.94 | 8.48 | CC1CCCC(Cc2c[nH]c3c(=O)[nH]c(N)nc23)C1 (centres undefined)
8 | 5.64 | 6.01 | 6.17 | Nc1nc2[nH]c(N)nc2c(=O)[nH]1 [8-AMINOGUANINE]
9 | 7.65 | 7.81 | 8.46 | Nc1nc(O)c2[nH]cc(Cc3ccsc3)c2n1
10 | 6.19 | 6.47 | 6.48 | Nc1nc(O)c2[nH]cc(C3CCCCC3)c2n1
11 | 7.02 |  |  | CC(C)c1ccc(Cc2c[nH]c3c(=O)[nH]c(N)nc23)cc1
12 | 7.59 | 7.72 | 8.37 | Nc1nc2c(Cc3cccc(Cl)c3)c[nH]c2c(=O)[nH]1
13 | 6.62 | 6.96 | 7.46 | Nc1nc(O)c2[nH]cc(Cc3ccc(O)cc3)c2n1
14 | 7.76 | 8.07 | 8.22 | Nc1nc2c(CC3CCCS3)c[nH]c2c(=O)[nH]1 (centres undefined)

Second part, the compound before the results:

Row | Compound | pIC50 [1] | pKi [2] | pKi [3]
15 | Nc1nc2c(Cc3ccc(-c4ccccc4)cc3)c[nH]c2c(=O)[nH]1 | 6.26 |  | 
16 | Nc1nc(O)c2nc(N)n(Cc3cccs3)c2n1 | 7.16 | 7.45 | 7.68
17 | N#CCC(c1cccnc1)c1cnc2c(O)[nH]cnc1-2 (centres undefined) | 7.41 |  | 
18 | Oc1ncn(Cc2ccccc2)c2ncnc1-2 | 4.30 | 4.61 | 
19 | Nc1nc2c(Cc3ccncc3)c[nH]c2c(=O)[nH]1 | 7.20 | 7.60 | 7.77
20 | Nc1nc(O)c2[nH]cc(C3=CCCCC3)c2n1 | 5.71 | 6.06 | 6.30
21 | Nc1nc2c(Cc3ccccn3)c[nH]c2c(=O)[nH]1 | 7.82 |  | 
22 | Nc1nc2c(CC3CCCC3)c[nH]c2c(=O)[nH]1 | 7.69 | 8.04 | 8.21
23 | Nc1nc2c(Cc3cnccc3Cl)c[nH]c2c(=O)[nH]1 | 6.87 | 7.18 | 7.45
24 | Oc1[nH]cnc2c(Cc3ccccc3)cnc1-2 | 7.61 | 7.73 | 8.27
25 | Nc1nc(O)c2[nH]cc(Oc3ccccc3)c2n1 | 7.38 |  | 
26 | Nc1nc2c(Cc3ccc(OCc4ccccc4)cc3)c[nH]c2c(=O)[nH]1 | 6.91 | 7.42 | 7.69
27 | Nc1nc2c(Cc3cccnc3)c[nH]c2c(=O)[nH]1 [PELDESINE] | 7.57 | 7.87 | 8.51
